Patent US5516775A, “Further use of pyrimidine derivatives” (Ciba-Geigy Corporation, priority 1992, dated 1996)

Key:
[1] = tested on: Human T24 bladder carcinoma cells; assay: Inhibition of the growth of human T24 bladder carcinoma cells; type: cell-based; conditions: 120 h, 5 days incubation, methylene blue staining, OD 665 nm
Experimental: In this assay, the inhibitory action of compounds of formula I on the growth of human T24 bladder carcinoma cells is determined. The IC50 values obtained for the compounds of formula I are from c. 1 to 10 μmol/liter.
Human T24 bladder carcinoma cells are incubated in "Eagle's minimal essential medium", to which 5% (v/v) foetal calf serum has been added, in a humidified incubator at 37° C. and 5 percent by volume CO2 in air. The carcinoma cells (1000-1500) are inoculated in 96-well microtitre plates and incubated overnight under the stated conditions. The test compound is added in serial dilutions on day 1. The plates are incubated for 5 days under the stated conditions. During this time the control cultures undergo at least 4 cell divisions. After incubation, the cells are fixed with a 3.3% (g/v) aqueous solution of glutaraldehyde, washed with water and stained with a 0.05% (weight/volume) aqueous solution of methylene blue. After washing, the stain is eluted with 3% (g/v) aqueous hydrochloric acid. Afterwards, the optical density (OD) per well, which is directly proportional to the number of cells, is measured with a photometer (Titertek multiskan) at 665 nm. The IC50 values are computed by a computer system, using the formula [formula] The IC50 values are defined as that active compound concentration at which the number of cells per well at the end of the incubation period is only 50% of the number of cells in the control cultures. The following IC50 values are obtained in this assay for the compounds of formula I: […]

[2] = target: Protein kinase C from pig brain; assay: Determination of the inhibitory action on protein kinase C; type: biochemical; conditions: method of Fabbro et al., read-out: IC50, inhibition of protein kinase C
Experimental: Protein kinase C from pig brain is used to determine the inhibitory action on protein kinase C. The inhibitory action of the compounds of formula I on protein kinase C is determined by the method of D. Fabbro et al, as described in Example 2. […] 0.1 to 30 μmol/liter.
Protein kinase C from pig brain purified in accordance with the procedure described by T. Uchida and C. R. Filbum in J. Biol. Chem. 259, 12311-4 (1984) is used to determine the inhibitory action on protein kinase C. The inhibitory action of the compounds of formula I on protein kinase C is determined by the method of D. Fabro et al., Arch. Biochem. Biophys. 239, 102-111 (1985). The following IC50 values are obtained in this assay for the compounds of formula I: […]

[3] = tested on: human T24 bladder carcinoma; assay: Antitumour activity in mice (T24 bladder carcinoma transplant); type: in vivo, female Balb/c nude mice; conditions: once daily for 15 days, measured 24 hours after last administration
Experimental: In the assay described in Example 3, the compounds of formula I, when administered perorally or intraperitoneally, reduce tumour volume to about 35-70% of tumour volume in control animals treated with placebo.
On day 0 a c. 25 mg piece of human T24 bladder carcinoma is transplanted subcutaneously using Trokar under operable "forene" narcosis on female Balb/c nude mice (Balb/c(Balb/c nu/nu, Bomholdgaard, Denmark; six mice per group). On day 6 after the tumour transplantation the average tumour volume is 120-140 mm^3 and treatment is commenced. The treatment consists in administering perorally or intraperitoneally once daily over 15 successive days, i.e. altogether 15 times, 25 ml/kg of the following formulation. This formulation is prepared as follows: 16 mg of a compound of formula I are dissolved in 0.4 ml of dimethyl sulfoxide (100% ). Then 0.05 ml of Tween 80 is added to this solution and the batch is mixed. Then 7.6 ml of a 0.9% aqueous solution of sodium chloride are added and the batch is thoroughly mixed. This formulation is prepared fresh daily. The control animals receive a placebo. The placebo is the same formulation without compound of formula I.
24 hours after the last administration, the tumour volume is measured and the ratio [%] of the tumour volume T/C is determined in the treated animals (T) and the control animals treated with placebo (C).

Compound	IC50 [1]	IC50 [2]	ratio T/C of tumour volume ([3]; intraperitoneal, 25 mg)	ratio T/C of tumour volume ([3]; intraperitoneal, 50 mg)	ratio T/C of tumour volume ([3]; peroral, 25 mg)	ratio T/C of tumour volume ([3]; peroral, 50 mg)
Clc1cccc(Nc2nccc(-c3cccnc3)n2)c1 [compound C, N-(3-chlorophenyl)-4-(3-pyridyl)-2-pyrimidinamine]	5.2 µM	6.3 µM	–	–	–	–
FC(F)(F)c1cccc(Nc2nccc(-c3cccnc3)n2)c1 [compound B, N-(3-trifluoromethylphenyl)-4-(3-pyridyl)-2-pyrimidinamine]	7.4 µM	2.5 µM	54%	46%	68%	53%
NCCCNC(=O)c1cccc(Nc2nccc(-c3cccnc3)n2)c1 [compound F, N-(3-[3-aminopropylaminocarbonyl]phenyl)-4-(3-pyridyl)-2-pyrimidinamine]	–	28 µM	–	–	–	–
c1cncc(-c2ccnc(Nc3cccc(-n4ccnc4)c3)n2)c1 [compound A, N-(3-1H-imidazol-1-ylphenyl)-4-(3-pyridyl)-2-pyrimidinamine]	2.5 µM	8.8 µM	–	–	–	–
COC(=O)c1cccc(Nc2nccc(-c3cccnc3)n2)c1 [compound E, N-(3-methoxycarbonylphenyl)-4-(3-pyridyl)-2-pyrimidinamine]	–	26 µM	–	–	–	–
Nc1cccc(Nc2nccc(-c3cccnc3)n2)c1 [compound D, N-(3-aminophenyl)-4-(3-pyridyl)-2-pyrimidinamine]	7.2 µM	28 µM	–	–	–	–
